Data: patent publication US11000529B2, “Human papilloma virus replication inhibitors” (Icosagen Cell Factory OÜ, priority 2015, dated 2021)
“Also recorded” adds a separate entry of the source.

Experiments:
[1] = system: HPV18; test: HPV18 initial amplification replication assay in U2OS cells (Southern Blot); type: cell-based
Source text: FIG. 2 Effect of the identified five compounds on HPV18 initial amplification. A: U2OS cells were transfected with HPV18 wt minicircle and grown in the presence of the compounds with indicated concentrations for 5 days. Genomic DNA was extracted, linearized, and digested with DpnI. HPV genome replication signals were detected using Southern Blot analyses and quantified with phosphoimager and expressed relative to vehicle control (DMSO). Approximate IC50 values are shown for each compound. Error-bars represent standard deviation from at least three independent experiment. B: U2OS cells were transfected with the expression vectors of HPV18 E1 and E2 proteins together with HPV18 URR (origin) minicircle plasmid. The cells were grown in the presence of the compounds with indicated concentrations for 24 or 48 hours. Genomic DNA was extracted, linearized and digested with DpnI. HPV URR replication signals were detected by Southern Blot analyses. DMSO serves as vehicle control and M 18URR serves as size marker.
(§1) Replication assay. The U2OS or U2OS-EBNA1 cells were transfected with 2 ug of HPV18 minicircle genome and lug of oriP plasmid (only in case of U2OS-EBNA1 cells). All the compounds were added to the media immediately after the transfection and media was changed on the third day. Replication signals were detected with Southern Blot method. Briefly, genomic DNA was extracted 3 and 4 days after the transfection with sh_RNAs or with the use of ABT-888 and 5 days after for analyses of the effects of HPV inhibitors w/wo CPT. DNA was digested with BglI and DpnI for analyses of HPV18 replication and with BstXI, ScaI and DpnI for analyses of HPV18 and oriP replication simultaneously. 3 ug of DNA was resolved in agarose gel, transferred to a nylon membrane (Membrane Solutions LLC) and hybridized with specific radioactively labeled probes. Signals were detected and quantified with Typhoon Trio+ phosphoimager (GE Healthcare) and exposed on an X-ray film (AGFA).
for compounds inhibiting initial amplification of HPV18 genome in U2OS cells. HT-screening was conducted with all the compounds in this library in 5 uM and 1 uM concentrations and it gave us 80 hits (approximately 5% of analyzed compounds). After validation of the hits on HPV18 wt genome, we found five compounds inhibiting initial amplification of HPV18 in U2OS cells (FIG. 1). To further characterize the compounds, we performed replication assay described in Example 1.

[2] = system: HPV18; test: Stable maintenance of HPV18 in U2OS #1.13 cells, subconfluent; type: cell-based; details: U2OS #1.13, subconfluent, 7 days
Experimental: (§2) FIG. 3 Effect of compounds on stable maintenance and vegetative amplification of HPV18. A: U2OS #1.13 cells were grown in subconfluent conditions in the presence of the identified five compounds for 7 days. Genomic DNA was extracted, linearized and HPV replication signal was detected by Southern Blot and B: quantified by phosphoimager. C: U2OS #1.13 were seeded and grown for 5 days without splitting. On the 5th day indicated concentrations of compounds were added to the media and the cells were grown for additional 7 days without splitting. On the 12th day genomic DNA was extracted, linearized and HPV replication signal was detected by Southern Blot and D: quantified by phosphoimager. Error-bars represent standard deviations from at least two independent experiments.
Our U2OScell-based system is suitable for studying all three replication stages of various HPV subtypes. Stable maintenance phase could be monitored by maintaining HPV-positive cells in subconfluent conditions. We used HPV18 positive monoclonal U2OS cell-line #1.13 with viral copy number ˜2000. We grew the #1.13 cells in the presence of various concentration of compounds in subconfluent conditions (cells were split every three days) for 7 days. HPV18 replication signal was detected by Southern blot analyses and quantified with phosphoimager. About 50% of the signal was lost in case of compound 82269 compared to the DMSO control (FIG. 3, panel A, compare lanes 4-6 with lane 15 and panel B).

[3] = system: HPV18; test: Vegetative amplification of HPV18 in U2OS #1.13 cells, confluent; type: cell-based; details: U2OS #1.13, confluent, compounds added on 5th day for additional 7 days
Experimental: as §2
If #1.13 is grown in confluent conditions for at least 5 days, vegetative amplification of HPV genome is turned on. We seeded equal amounts of cells onto plates and grew them for 5 days without splitting. On the 5th day various concentrations of compound were added and the cells were grown for additional 7 days (media was changed every two days throughout the experiment). HPV replication signal was detected by Southern Blot analyses and quantified with phosphoimager.

[4] = system: HPV18; test: HPV18 replication in U2OS-EBNA1 cells, compounds alone or with CPT; type: cell-based; details: U2OS-EBNA1, with 2 nM CPT, 5 days
Experimental: FIG. 5 Synergistic effect between Camptothecin (CPT) and the identified five compounds. U2OS-EBNA1 cells were transfected with HPV18 wt and oriP plasmids and grown in the presence of indicated concentrations of the compounds alone or together with 2 nM CPT for 5 days. Genomic DNA was extracted, linearized and digested with DpnI. Both HPV18 and oriP replication signals were detected with Southern Blot and quantified by phosphoimager. […] Error-bars represent standard deviations from at least three independent experiments.
as §1
Synergistic effect of Campthotecin (CPT) and HPV18 replication inhibitors. CPT is a Topoisomerase I inhibitor that stabilizes entrapped Top1cc complexes to DNA. Since Tdp1 is responsible for cleaving entrapped Top1cc complexes from DNA, synergistic effect between CPT and Tdp1 inhibitors occurs. In the experiments shown in FIG. 5 we used U2OS cells constitutively expressing Epstein Barr virus (EBV) EBNA1 protein—U2OS-EBNA1. These cells allow to monitor HPV and EBNA1 supported oriP plasmid replication simultaneously. […] U2OS-EBNA1 cells were cotransfected with HPV18 genome and oriP plasmid and the cells were grown in the presence of various concentrations of the identified HPV inhibitors alone or together with 2 nM of CPT for 5 days, DMSO was used as vehicle control.

[5] = system: HPV18E1E2 mutant genome; test: HPV18E1E2 mutant genome replicated by HPV11 E1 and E2 in U2OS cells; type: cell-based, HPV18; details: U2OS co-transfected with HPV18E1E2 mutant and HPV11 wt minicircle, 5 days
Source text: Besides oncoproteins E6 and E7, HPVs differ from replication proteins E1 and E2 as well. To determine if the compounds identified here inhibit the replication of HR but not LR or cutaneous HPVs through E1 or E2, HPV18E1E2 mutant genome (deficient in replication due to mutations in the ORFs of E1 and E2) was replicated by E1 and E2 proteins originating from HPV11. HPV18E1E2 mutant genome alone was used as control. U2OS cells were co-transfected with HPV18E1E2 mutant and HPV11 wt mini circle genome and the cells were grown in the presence of compound 305831 for 5 days, media was changed on the 3rd day. DMSO was added as vehicle control. Genomic DNA was extracted, HPV DNA was digested with AgeI, SdaI and DpnI. HPV replication was detected by Southern Blot analyses. Results on FIG. 7 show, that HPV18E1E2 mutant genome is indeed replication-deficient when transfected alone (lane 7). […] The activity of LR-HPV E1 and E2 proteins or their interactome seem to be different compared to HR-HPV replication proteins.

[6] = target: Tdp (Homo sapiens, UniProt Q9NUW8); details: known from the literature; cited from earlier work
Chain of Tdp (Q9NUW8 whole entry): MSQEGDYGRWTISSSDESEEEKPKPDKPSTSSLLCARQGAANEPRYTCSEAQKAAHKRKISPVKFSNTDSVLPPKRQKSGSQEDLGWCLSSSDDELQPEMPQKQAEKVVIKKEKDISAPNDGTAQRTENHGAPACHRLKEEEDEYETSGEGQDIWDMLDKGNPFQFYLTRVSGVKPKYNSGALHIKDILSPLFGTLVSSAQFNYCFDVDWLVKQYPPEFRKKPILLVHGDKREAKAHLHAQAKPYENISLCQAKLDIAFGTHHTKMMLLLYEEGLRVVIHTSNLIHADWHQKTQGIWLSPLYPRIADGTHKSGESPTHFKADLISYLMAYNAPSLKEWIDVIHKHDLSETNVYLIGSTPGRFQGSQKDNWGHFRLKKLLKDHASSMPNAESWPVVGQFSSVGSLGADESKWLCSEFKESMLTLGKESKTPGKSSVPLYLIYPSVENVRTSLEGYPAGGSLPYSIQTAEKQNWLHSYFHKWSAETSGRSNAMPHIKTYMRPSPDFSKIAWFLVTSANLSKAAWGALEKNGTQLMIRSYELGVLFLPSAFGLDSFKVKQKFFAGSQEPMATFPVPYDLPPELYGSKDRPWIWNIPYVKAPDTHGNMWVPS

Compound: [H]/N=C(\N)c1ccc(-c2ccc(-c3ccc(C(=N)N)cc3)o2)cc1 [NSC 305831]
- IC50 ([1]; 120 h, read-out: IC50 of HPV18 initial amplification): 2.5 to 60 µM
- inhibition of HPV18 initial amplification ([1]; HPV18 wt minicircle, 5 days, Southern Blot, relative to DMSO): concentration-dependent inhibition
- effect on stable maintenance of HPV18 [2]: clearly inhibit
- HPV18 replication signal lost ([2]; compared to DMSO control): about 70%
- effect on vegetative amplification of HPV18 [3]: almost completely abolished amplification; also recorded: clearly inhibit
- synergistic effect together with CPT on HPV18 replication [4]: clear concentration dependent synergistic effect; also recorded: clear synergistic inhibition
- HPV18 replication carried out by E1 and E2 proteins originating from HPV11 [5]: no inhibition of HPV18 replication
- Tdp inhibition [6]: known to inhibit Tdp
